# Data reported in patent publication US10968231B2, “Substituted cyclyl-acetic acid derivatives for the treatment of metabolic disorders” (TAKEDA PHARMACEUTICAL COMPANY LIMITED, priority 2017, dated 2021).
# Biological target: T1, human GPR40 (Homo sapiens, UniProt O14842)
# T1 construct: expressed in transfected cells
# Assay: Evaluation of human GPR40 agonist activity with increase in intracellular Ca2+ concentration as an index (FLIPR)
# Assay type: cell-based
# Conditions: test compound at final concentration of 1 μM; CHO(dhfr−) cells stably expressing human GPR40; 100% = activity of 10 μM of compound of WO 2015/020184 Example 153, 0% = DMSO
# Protocol: Evaluation of Human GPR40 Agonist Activity with Increase in Intracellular Ca^2+ Concentration as an Index
# CHO(dhfr−) cells that stably expressed human GPR40 were suspended in MEMα (Wako Pure Chemical Industries, Ltd.) containing 10% dialyzed serum (Thermo Fisher Scientific), 10 mM HEPES (Thermo Fisher Scientific), 100 U/mL penicillin, 100 μg/mL streptomycin (Wako Pure Chemical Industries, Ltd.), and plated on a 384 well black/clear cell culture plate at 10,000 cells/well. After culture overnight in a CO2 incubator at 37° C., the culture supernatant was removed, and loading buffer [Ca^2+ probe attached to Calcium Kit II-iCellux (DOJINDO) was dissolved in assay buffer (20 mM HEPES, 0.1% fatty acid-free BSA (Wako Pure Chemical Industries, Ltd.), 2.5 mM probenecid (DOJINDO)-containing HBSS (Thermo Fisher Scientific))] was added at 30 μL/well. After leaving for 1 hr at room temperature under light shielding, assay buffer containing the test compound at a final concentration of 1 μM was added at 10 μL/well in fluorescence plate reader FLIPR Tetra (Molecular Devices), and the fluorescence amount was successively measured. Human GPR40 agonist activity was calculated using an increase in the intracellular Ca^2+ concentration as an index, wherein the activity of 10 μM of the compound of WO 2015/020184 (Example 153: 3-cyclopropyl-3-(2-((1-(2-((2-fluoro-2-methylpropyl)(4-methylpyridin-2-yl)carbamoyl)-5-methoxyphenyl)piperidin-4-yl)methoxy)pyridin-4-yl)propanoic acid) was 100%, and the activity when DMSO was added instead of the test compound was 0%.
# T1 sequence (O14842 whole entry): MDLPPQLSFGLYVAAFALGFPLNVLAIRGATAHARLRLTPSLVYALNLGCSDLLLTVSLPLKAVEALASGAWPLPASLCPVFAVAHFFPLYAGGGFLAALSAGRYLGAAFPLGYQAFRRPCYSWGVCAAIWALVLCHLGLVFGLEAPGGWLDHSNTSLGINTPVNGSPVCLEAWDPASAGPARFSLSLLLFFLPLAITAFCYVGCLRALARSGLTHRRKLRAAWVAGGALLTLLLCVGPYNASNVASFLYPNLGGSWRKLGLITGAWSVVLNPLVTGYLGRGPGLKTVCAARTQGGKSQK
row,SMILES,activity (human GPR40 agonist activity)
1,"COc1ccc(C2CCN(CC(F)(F)F)CC2)c(N2CCC(COc3cc4c(cn3)CCC4CC(=O)O)CC2)c1 (stereo not shown) [Example 4, (3-((1-(5-methoxy-2-(1-(2,2,2-trifluoroethyl)piperidin-4-yl)phenyl)piperidin-4-yl)methoxy)-6,7-dihydro-5H-cyclopenta[c]pyridin-5-yl)acetic acid]",108%
2,"COc1cc(N2CCC(COc3cc4c(cn3)OCCC4CC(=O)O)CC2)c(OCC(F)(F)C(F)(F)F)cn1 (stereo not shown) [Example 11, (6-((1-(2-methoxy-5-(2,2,3,3,3-pentafluoropropoxy)pyridin-4-yl)piperidin-4-yl)methoxy)-3,4-dihydro-2H-pyrano[2,3-c]pyridin-4-yl)acetic acid]",107%
3,"COc1cc(N2CCC(COc3cc4c(cn3)OCCC4CC(=O)O)CC2)c(C2CCN(CC(F)(F)F)CC2)cn1 (single isomer, unassigned) [Example 7, (6-((1-(2-methoxy-5-(1-(2,2,2-trifluoroethyl)piperidin-4-yl)pyridin-4-yl)piperidin-4-yl)methoxy)-3,4-dihydro-2H-pyrano[2,3-c]pyridin-4-yl)acetic acid]",107%
4,"COc1cc(N2CCC(COc3cc4c(cn3)OCCC4CC(=O)O)CC2)c(C2CCN(CC(F)(F)F)CC2)cn1 (single isomer, unassigned) [Example 6, (6-((1-(2-methoxy-5-(1-(2,2,2-trifluoroethyl)piperidin-4-yl)pyridin-4-yl)piperidin-4-yl)methoxy)-3,4-dihydro-2H-pyrano[2,3-c]pyridin-4-yl)acetic acid]",59%
5,"COc1ccc(C2CCN(CC(F)(F)F)CC2)c(N2CCC(COc3cc4c(cn3)OCCC4CC(=O)O)CC2)c1 (stereo not shown) [Example 36, (6-((1-(5-methoxy-2-(1-(2,2,2-trifluoroethyl)piperidin-4-yl)phenyl)piperidin-4-yl)methoxy)-3,4-dihydro-2H-pyrano[2,3-c]pyridin-4-yl)acetic acid]",110%
6,"COc1ccc(C2CCN(CC(F)(F)F)CC2)c(N2CCC(COc3cc4c(cn3)CCC4CC(=O)O)CC2)c1 (stereo not shown) [Example 10, (3-((1-(5-methoxy-2-(1-(2,2,2-trifluoroethyl)piperidin-4-yl)phenyl)piperidin-4-yl)methoxy)-6,7-dihydro-5H-cyclopenta[c]pyridin-5-yl)acetic acid]",105%
7,"COc1ccc(C2CCN(CC(F)(F)F)CC2)c(N2CCC(COc3cc4c(cn3)CCC4CC(=O)O)CC2)c1 (stereo not shown) [Example 29, (3-((1-(5-methoxy-2-(1-(2,2,2-trifluoroethyl)piperidin-4-yl)phenyl)piperidin-4-yl)methoxy)-6,7-dihydro-5H-cyclopenta[c]pyridin-5-yl)acetic acid]",65%
8,"COc1ccc(CCC(F)(F)F)c(N2CCC(COc3cc4c(cn3)OCCC4CC(=O)O)CC2)c1 (stereo not shown) [Example 1, (6-((1-(5-methoxy-2-(3,3,3-trifluoropropyl)phenyl)piperidin-4-yl)methoxy)-3,4-dihydro-2H-pyrano[2,3-c]pyridin-4-yl)acetic acid]",107%
9,"COc1cc(N2CCC(COc3cc4c(cn3)CCC4CC(=O)O)CC2)c(OCC(F)(F)C(F)(F)F)cn1 (stereo not shown) [Example 3, (3-((1-(2-methoxy-5-(2,2,3,3,3-pentafluoropropoxy)pyridin-4-yl)piperidin-4-yl)methoxy)-6,7-dihydro-5H-cyclopenta[c]pyridin-5-yl)acetic acid]",109%
10,"COc1ccc(C2CCN(CC(F)(F)F)CC2)c(N2CCC(COc3cc4c(cn3)OCCC4CC(=O)O)CC2)c1 (stereo not shown) [Example 9, (6-((1-(5-methoxy-2-(1-(2,2,2-trifluoroethyl)piperidin-4-yl)phenyl)piperidin-4-yl)methoxy)-3,4-dihydro-2H-pyrano[2,3-c]pyridin-4-yl)acetic acid]",104%
11,"COc1cc(N2CCC(COc3cc4c(cn3)OCCC4CC(=O)O)CC2)c(OCC(F)(F)C(F)(F)F)cn1 (stereo not shown) [Example 2, (6-((1-(2-methoxy-5-(2,2,3,3,3-pentafluoropropoxy)pyridin-4-yl)piperidin-4-yl)methoxy)-3,4-dihydro-2H-pyrano[2,3-c]pyridin-4-yl)acetic acid]",108%
12,"COc1cc(N2CCC(COc3cc4c(cn3)OCCC4CC(=O)O)CC2)c(OCC(F)(F)C(F)(F)F)cn1 (stereo not shown) [Example 17, (6-((1-(2-methoxy-5-(2,2,3,3,3-pentafluoropropoxy)pyridin-4-yl)piperidin-4-yl)methoxy)-3,4-dihydro-2H-pyrano[2,3-c]pyridin-4-yl)acetic acid]",58%
13,"COc1ccc(C2CCN(CC(F)(F)F)CC2)c(N2CCC(COc3cc4c(cn3)OCCC4CC(=O)O)CC2)c1 (stereo not shown) [Example 28, (6-((1-(5-methoxy-2-(1-(2,2,2-trifluoroethyl)piperidin-4-yl)phenyl)piperidin-4-yl)methoxy)-3,4-dihydro-2H-pyrano[2,3-c]pyridin-4-yl)acetic acid]",54%
14,"COc1ccc(CCC(F)(F)F)c(N2CCC(COc3cc4c(cn3)OCCC4CC(=O)O)CC2)c1 (stereo not shown) [Example 8, (6-((1-(5-methoxy-2-(3,3,3-trifluoropropyl)phenyl)piperidin-4-yl)methoxy)-3,4-dihydro-2H-pyrano[2,3-c]pyridin-4-yl)acetic acid]",103%
15,"COc1ccc(CCC(F)(F)F)c(N2CCC(COc3cc4c(cn3)OCCC4CC(=O)O)CC2)c1 (stereo not shown) [Example 18, (6-((1-(5-methoxy-2-(3,3,3-trifluoropropyl)phenyl)piperidin-4-yl)methoxy)-3,4-dihydro-2H-pyrano[2,3-c]pyridin-4-yl)acetic acid]",41%
16,"COc1cc(N2CCC(COc3cc4c(cn3)OCCC4CC(=O)O)CC2)c(C2CCN(CC(F)(F)F)CC2)cn1 (single isomer, unassigned) [Example 5, (6-((1-(2-methoxy-5-(1-(2,2,2-trifluoroethyl)piperidin-4-yl)pyridin-4-yl)piperidin-4-yl)methoxy)-3,4-dihydro-2H-pyrano[2,3-c]pyridin-4-yl)acetic acid]",111%
